In patent US9062071B2, “Substituted piperidines as HDM2 inhibitors” (Merck Sharp & Dohme Corp, priority 2011, dated 2015):

What follows are compounds tested against HDM2 protein (Homo sapiens, UniProt Q00987) (assay: fluorescence polarization screening assay (FP IC50)). Settings: class symbols.
Assay type: binding
Description: The compounds were evaluated to determine activity at the HDM2 protein by known methods such as the fluorescence polarization screening assay that measures the inhibitory concentration that achieves 50% of maximal activity (FP IC50) and the dissociation constant for inhibitor binding (FP Ki). [Zhang et al., J. Analytical Biochemistry 331: 138-146 (2004)].

Sequence of HDM2 protein (Q00987 whole entry): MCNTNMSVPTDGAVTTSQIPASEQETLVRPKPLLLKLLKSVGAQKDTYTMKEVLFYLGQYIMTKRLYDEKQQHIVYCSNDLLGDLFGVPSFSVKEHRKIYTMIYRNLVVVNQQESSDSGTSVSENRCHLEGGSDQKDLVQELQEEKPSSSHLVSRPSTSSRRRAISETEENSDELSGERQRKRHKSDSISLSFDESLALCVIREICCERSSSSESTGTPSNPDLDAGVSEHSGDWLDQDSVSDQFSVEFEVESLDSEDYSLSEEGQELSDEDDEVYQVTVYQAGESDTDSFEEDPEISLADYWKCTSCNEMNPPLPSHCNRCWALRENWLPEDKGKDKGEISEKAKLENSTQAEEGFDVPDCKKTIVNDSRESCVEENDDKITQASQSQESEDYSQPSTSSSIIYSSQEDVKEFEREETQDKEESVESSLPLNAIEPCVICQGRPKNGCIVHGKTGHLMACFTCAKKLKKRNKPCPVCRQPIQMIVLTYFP

Row | SMILES | IC50 [nM]
1 | CCC[C@H]1N(C(=O)c2ncccc2C(F)(F)F)CCC[C@@]1(Oc1csc(C(F)(F)F)c1)C(=O)N1CCc2sc(Cl)cc2C1CN1CCCC1 (stereo partly drawn) [Compound A35, 2-chloro-5-{[(2R,3S)-2-propyl-1-{[3-(trifluoromethyl)pyridin-2-yl]carbonyl}-3-{[5-(trifluoromethyl)thiophen-3-yl]oxy}piperidin-3-yl]carbonyl}-4-(pyrrolidin-1-ylmethyl)-4,5,6,7-tetrahydrothieno[3,2-c]pyridine] | 101 to 20000
2 | CCC[C@H]1N(C(=O)c2ncccc2C(F)(F)F)CCC[C@@]1(Oc1csc(C(F)(F)F)c1)C(=O)N1Cc2ccc(Cl)cc2C[C@@H]1CCCN1CCC[C@H]1COC [Compound A156, (3S)-6-chloro-3-{3-[(2S)-2-(methoxymethyl)pyrrolidin-1-yl]propyl}-2-{[(2R,3S)-2-propyl-1-{[3-(trifluoromethyl)pyridin-2-yl]carbonyl}-3-{[5-(trifluoromethyl)thiophen-3-yl]oxy}piperidin-3-yl]carbonyl}-1,2,3,4-tetrahydroisoquinoline] | 1 to 100
3 | CCC[C@H]1N(C(=O)c2ncccc2C(F)(F)F)CCC[C@@]1(Oc1csc(C(F)(F)F)c1)C(=O)N1CCc2cc(Cl)ccc2C1CCC(=O)NCc1nn[nH]n1 (stereo partly drawn) [Compound A67, 3-(6-chloro-2-{[(2R,3S)-2-propyl-1-{[3-(trifluoromethyl)pyridin-2-yl]carbonyl}-3-{[5-(trifluoromethyl)thiophen-3-yl]oxy}piperidin-3-yl]carbonyl}-1,2,3,4-tetrahydroisoquinolin-1-yl)-N-(2H-tetrazol-5-ylmethyl)propanamide] | 1 to 100
4 | CCC[C@H]1N(C(=O)c2ncccc2C(F)(F)F)CCC[C@@]1(Oc1csc(C(F)(F)F)c1)C(=O)N1CCc2cc(Cl)ccc2[C@H]1CCC(=O)N1CCC(C(=O)O)CC1 [Compound A98, 1-{3-[(1R)-6-chloro-2-{[(2R,3S)-2-propyl-1-{[3-(trifluoromethyl)pyridin-2-yl]carbonyl}-3-{[5-(trifluoromethyl)thiophen-3-yl]oxy}piperidin-3-yl]carbonyl}-1,2,3,4-tetrahydroisoquinolin-1-yl]propanoyl}piperidine-4-carboxylic acid] | 1 to 100
5 | CCC[C@H]1N(C(=O)c2ncccc2C(F)(F)F)CCC[C@@]1(Oc1csc(C(F)(F)F)c1)C(=O)N1CCc2sc(Cl)cc2C1CCCN1CCCC1 (stereo partly drawn) [Compound A33, 2-chloro-5-{[(2R,3S)-2-propyl-1-{[3-(trifluoromethyl)pyridin-2-yl]carbonyl}-3-{[5-(trifluoromethyl)thiophen-3-yl]oxy}piperidin-3-yl]carbonyl}-4-(3-pyrrolidin-1-ylpropyl)-4,5,6,7-tetrahydrothieno[3,2-c]pyridine] | 101 to 20000
6 | CCC[C@H]1N(C(=O)c2ncccc2C(F)(F)F)CCC[C@@]1(Oc1csc(C(F)(F)F)c1)C(=O)N1Cc2ccc(F)cc2C[C@H]1C[C@H](C(=O)O)C(C)C [Compound A153, (2S)-2-{[(3R)-6-fluoro-2-{[(2R,3S)-2-propyl-1-{[3-(trifluoromethyl)pyridin-2-yl]carbonyl}-3-{[5-(trifluoromethyl)thiophen-3-yl]oxy}piperidin-3-yl]carbonyl}-1,2,3,4-tetrahydroisoquinolin-3-yl]methyl}-3-methylbutanoic acid] | 1 to 100
7 | CCC[C@H]1N(C(=O)c2ncccc2C(F)(F)F)CCC[C@@]1(Oc1csc(C(F)(F)F)c1)C(=O)N1CCc2cc(C(N)=O)ccc2C1 [Compound A89, 2-{[(2R,3S)-2-propyl-1-{[3-(trifluoromethyl)pyridin-2-yl]carbonyl}-3-{[5-(trifluoromethyl)thiophen-3-yl]oxy}piperidin-3-yl]carbonyl}-1,2,3,4-tetrahydroisoquinoline-6-carboxamide] | 101 to 20000
8 | CCC[C@H]1N(C(=O)c2ncccc2C(F)(F)F)CCC[C@@]1(Oc1csc(C(F)(F)F)c1)C(=O)N1CCc2cc(Cl)ccc2C1 [Compound A49, 6-chloro-2-{[(2R,3S)-2-propyl-1-{[3-(trifluoromethyl)pyridin-2-yl]carbonyl}-3-{[5-(trifluoromethyl)thiophen-3-yl]oxy}piperidin-3-yl]carbonyl}-1,2,3,4-tetrahydroisoquinoline] | 1 to 100
9 | CCC[C@H]1N(C(=O)c2ncccc2C(F)(F)F)CCC[C@@]1(Oc1csc(C(F)(F)F)c1)C(=O)N1CCc2cc(Cl)sc2C1CC(C)(C)C(=O)O (stereo partly drawn) [Compound A31, 3-(2-chloro-6-{[(2R,3S)-2-propyl-1-{[3-(trifluoromethyl)pyridin-2-yl]carbonyl}-3-{[5-(trifluoromethyl)thiophen-3-yl]oxy}piperidin-3-yl]carbonyl}-4,5,6,7-tetrahydrothieno[2,3-c]pyridin-7-yl)-2,2-dimethylpropanoic acid] | 1 to 100
10 | COCCN(CCOC)CC[C@H]1N(C(=O)c2cnccc2C(F)(F)F)CCC[C@@]1(Oc1csc(C(F)(F)F)c1)C(=O)N1CCc2cc(Cl)ccc2C1 [Compound A2, 2-[(2R,3S)-3-[(6-chloro-3,4-dihydroisoquinblin-2(1H)-yl)carbonyl]-1-{[4-(trifluoromethyl)byridin-3-yl]carbonyl}-3-{[5-(trifluoromethyl)thiophen-3-yl]oxy}piperidin-2-yl]-N,N-bis(2-methoxyethyl)ethanamine] | 1 to 100

Now from value to compound:

Row | IC50 [nM] | SMILES
11 | 1 to 100 | CCC[C@H]1N(C(=O)c2ncccc2C(F)(F)F)CCC[C@@]1(Oc1csc(C(F)(F)F)c1)C(=O)N1CCc2cc(Cl)ccc2C1CCCC(=O)O (stereo partly drawn) [Compound A74, 4-(6-chloro-2-{[(2R,3S)-2-propyl-1-{[3-(trifluoromethyl)pyridin-2-yl]carbonyl}-3-{[5-(trifluoromethyl)thiophen-3-yl]oxy}piperidin-3-yl]carbonyl}-1,2,3,4-tetrahydroisoquinolin-1-yl)butanoic acid]
12 | 1 to 100 | CCC[C@H]1N(C(=O)c2ncccc2C(F)(F)F)CCC[C@@]1(Oc1csc(C(F)(F)F)c1)C(=O)N1CCc2cc(F)ccc2C1CCC(=O)O (stereo partly drawn) [Compound A44, 3-(6-fluoro-2-{[(2R,3S)-2-propyl-1-{[3-(trifluoromethyl)pyridin-2-yl]carbonyl}-3-{[5-(trifluoromethyl)thiophen-3-yl]oxy}piperidin-3-yl]carbonyl}-1,2,3,4-tetrahydroisoquinolin-1-yl)propanoic acid]
13 | 1 to 100 | CCC[C@H]1N(C(=O)c2ncccc2C(F)(F)F)CCC[C@@]1(Oc1csc(C(F)(F)F)c1)C(=O)N1Cc2ccc(F)cc2C[C@@H]1CCN(C)C(=O)[C@@H](C)O [Compound A163, (2R)-N-{2-[(3R)-6-fluoro-2-{[(2R,3S)-2-propyl-1-{[3-(trifluoromethyl)pyridin-2-yl]carbonyl}-3-{[5-(trifluoromethyl)thiophen-3-yl]oxy}piperidin-3-yl]carbonyl}-1,2,3,4-tetrahydroisoquinolin-3-yl]ethyl}-2-hydroxy-N-methylpropanamide]
14 | 1 to 100 | CCC[C@H]1N(C(=O)c2ncccc2C(F)(F)F)CCC[C@@]1(Oc1csc(C(F)(F)F)c1)C(=O)N1CCc2cc(Cl)ccc2C1CC(=O)N1CCC(O)CC1 (stereo partly drawn) [Compound A85, 1-[(6-chloro-2-{[(2R,3S)-2-propyl-1-{[3-(trifluoromethyl)pyridin-2-yl]carbonyl}-3-{[5-(trifluoromethyl)thiophen-3-yl]oxy}piperidin-3-yl]carbonyl}-1,2,3,4-tetrahydroisoquinolin-1-yl)acetyl]piperidin-4-ol]
